In paper PMC8428802 (Journal of medicinal chemistry, 2020):

Experiments:
[1] = target: over 30 brain receptors or channels; assay: NIMH-PDSP broad-panel counter screening; type: binding; conditions: 10 μM
[2] = system: HEK293 cells lacking GPR52; assay: cAMP control study in HEK293 cells lacking GPR52; type: cell-based, human
hERG = hERG (Homo sapiens, UniProt Q12809); assay: NIMH-PDSP counter screening, hERG binding; conditions: 10 μM
human GPR52 = human GPR52 (Homo sapiens, UniProt Q9Y2T5); assay: Glosensor cAMP assay in HEK293 cells transiently expressing human GPR52; type: cell-based; conditions: for decreased EC50 (loss of potency): comparator not stated
Chain of human GPR52 (Q9Y2T5 whole entry): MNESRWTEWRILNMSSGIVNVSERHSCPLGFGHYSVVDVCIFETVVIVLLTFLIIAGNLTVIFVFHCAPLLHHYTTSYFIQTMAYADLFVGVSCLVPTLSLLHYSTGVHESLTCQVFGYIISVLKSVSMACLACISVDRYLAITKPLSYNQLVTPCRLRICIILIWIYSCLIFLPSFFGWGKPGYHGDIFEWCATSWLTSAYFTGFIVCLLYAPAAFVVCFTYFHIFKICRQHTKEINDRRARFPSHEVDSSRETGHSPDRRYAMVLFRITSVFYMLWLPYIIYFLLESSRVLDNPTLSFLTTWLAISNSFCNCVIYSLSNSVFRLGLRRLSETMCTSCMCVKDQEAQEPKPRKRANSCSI

Chain of hERG (Q12809 whole entry): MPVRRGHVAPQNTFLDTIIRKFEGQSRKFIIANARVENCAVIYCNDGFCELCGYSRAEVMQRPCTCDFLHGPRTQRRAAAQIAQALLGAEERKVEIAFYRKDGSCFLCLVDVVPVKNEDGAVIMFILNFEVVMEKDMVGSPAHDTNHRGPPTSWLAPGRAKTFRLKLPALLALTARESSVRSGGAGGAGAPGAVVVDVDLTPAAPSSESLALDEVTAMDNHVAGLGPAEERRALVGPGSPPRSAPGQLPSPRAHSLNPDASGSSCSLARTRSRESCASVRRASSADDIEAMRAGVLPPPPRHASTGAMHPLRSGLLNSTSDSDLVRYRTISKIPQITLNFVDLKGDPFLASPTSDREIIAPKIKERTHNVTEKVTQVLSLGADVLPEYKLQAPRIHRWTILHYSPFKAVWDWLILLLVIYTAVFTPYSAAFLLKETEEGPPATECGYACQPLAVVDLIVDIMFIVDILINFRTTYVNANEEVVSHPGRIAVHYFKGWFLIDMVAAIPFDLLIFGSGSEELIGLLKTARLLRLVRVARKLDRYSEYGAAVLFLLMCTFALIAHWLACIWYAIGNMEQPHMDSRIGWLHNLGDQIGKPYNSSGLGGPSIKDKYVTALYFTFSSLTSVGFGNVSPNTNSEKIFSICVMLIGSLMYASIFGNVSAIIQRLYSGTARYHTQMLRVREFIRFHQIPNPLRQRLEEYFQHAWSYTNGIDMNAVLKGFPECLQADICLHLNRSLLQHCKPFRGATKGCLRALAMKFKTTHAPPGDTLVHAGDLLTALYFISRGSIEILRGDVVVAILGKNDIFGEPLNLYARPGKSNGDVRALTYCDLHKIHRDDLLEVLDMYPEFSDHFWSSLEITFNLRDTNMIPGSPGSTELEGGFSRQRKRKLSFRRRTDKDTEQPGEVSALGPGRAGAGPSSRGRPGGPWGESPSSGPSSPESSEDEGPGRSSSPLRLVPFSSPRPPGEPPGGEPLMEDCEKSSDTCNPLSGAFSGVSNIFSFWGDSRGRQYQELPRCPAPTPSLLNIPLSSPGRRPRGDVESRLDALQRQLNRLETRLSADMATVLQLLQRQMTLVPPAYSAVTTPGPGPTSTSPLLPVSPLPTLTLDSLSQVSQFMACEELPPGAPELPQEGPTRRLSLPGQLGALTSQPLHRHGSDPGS

O=C(NCCO)c1cccc2c1CCN2c1cc(Cc2cc(F)cc(C(F)(F)F)c2)ncn1 [Compound 12c, 1-(6-(3-Fluoro-5-(trifluoromethyl)benzyl)pyrimidin-4-yl)-N-(2-hydroxyethyl)indoline-4-carboxamide]
binding affinity (Ki) at panel [1]: no significant binding affinity
cAMP increase in cells lacking GPR52 [2]: did not increase cAMP
hERG potassium channel binding activity (hERG): did not show any

Cc1c(Cc2cc(F)cc(C(F)(F)F)c2)cnnc1N1CCc2c(C(=O)NCCO)cccc21 [Compound 12e, 1-(5-(3-Fluoro-5-(trifluoromethyl)benzyl)-4-methylpyridazin-3-yl)-N-(2-hydroxyethyl)indoline-4-carboxamide]
decreased EC50 (loss of potency) (human GPR52): > 4 fold

O=C(NCCO)c1cccc2c1CCN2c1nncc(Cc2cc(F)cc(C(F)(F)F)c2)c1Cl [Compound 12f, 1-(4-Chloro-5-(3-fluoro-5-(trifluoromethyl)benzyl)-pyridazin-3-yl)-N-(2-hydroxyethyl)indoline-4-carboxamide]
decreased EC50 (loss of potency) (human GPR52): > 4 fold

O=C(NCCO)c1cccc2c1CCN2c1cc(Cc2ccccc2C(F)(F)F)ncn1 [Compound 23b, N-(2-Hydroxyethyl)-1-(6-(2-(trifluoromethyl)benzyl)-pyrimidin-4-yl)indoline-4-carboxamide]
loss of potency relative to 23a (human GPR52; EC50 vs compound 23a): > 7 fold
